Laboratory results from PMC11356819 (Molecules, 2024).
Read-outs that look alike come from different tables or passages of the source.

Columns and labels:
[1] = target: T1, mIDH1R132H (Homo sapiens, UniProt O75874, R132H); test: enzymatic inhibition assay with commercial IDH1 (R132H) kit; format: biochemical; details: for Amax (fit parameter) / Amin (fit parameter) / Hill slope: Hill fit; for Amax (fit parameter) / Amin (fit parameter) / Hill slope / IC50: parentheses = 95% CI; for IC50: non-labeled compounds, n = 3, read-out: IC50 for suppression of mIDH1R132H
T1 construct: purchased BPS Bioscience, San Diego, CA, USA
Description: The inhibitory activity of the candidate probes against mIDH1 was evaluated by enzymatic assays with serially diluted solutions of the non-labeled compounds using a commercially available assay kit (IDH1 (R132H) from BPS Bioscience, San Diego, CA, USA). IC50 values were determined with GraphPad Prism 4.00 by fitting the resulting dose-response curves with the Hill function.
Data are shown as mean ± standard deviation (n = 3). For additional fit parameters and 95% confidence intervals, see Table S12 in Section S4.1.4 of Supplementary Materials. TEXT PRINTED IN THE PICTURE: (S)-2: IC50 [nM]: 102 | (R)-2: IC50 [nM]: 1358 | 4: IC50 [nM]: 713 | 5: IC50 [nM]: 8279
4.1.4. Inhibitory potency (IC50)
Values in parenthesis indicate 95% confidence intervals.

[2] = stability of reference compounds in DMSO; format: physicochemical; details: room temperature, at least 28 h, non-labeled reference compounds
Description: The in vitro stability of the radiolabeled probes was evaluated by incubation studies with phosphate-buffered saline (PBS) and rat serum.
A solution of the corresponding reference compound in DMSO (1 mg/mL) was incubated at room temperature for 28–30 h, during which aliquots were removed every few hours and analyzed by analytical HPLC. The fraction of intact reference compound at each time point was calculated by dividing the peak area of the reference compound by the total area of all peaks in the chromatogram and plotted as a function of time.

[3] = target: T1, mIDH1R132H; details: cited from earlier work
[4] = lipophilicity by shake-flask method (n-octanol/water or PBS); format: physicochemical; details: triplicate; for logD: n-octanol/PBS pH 7.4, shake-flask, read-out: logD7.4 Exp. Determined; for logP: n-octanol/water, shake-flask
Description: As a measure for the lipophilicity of the four radiolabeled probes, their partition coefficients (logP) and distribution coefficients at pH 7.4 (logD7.4) were determined by the shake-flask method. Table 1 summarizes the results of these experiments and compares them with the predicted logD7.4 values calculated using the ADMETlab platform.
A solution of the corresponding radiotracer in DMSO (1 µL) was added to a mixture of n-octanol and PBS (pH = 7.4) or water (750 µL of each) in a 2 mL Eppendorf vial and the vial was vortexed for 2 min and centrifuged for another 2 min to separate the two phases. A total of 300 µL of the upper n-octanol phase was then carefully removed from the top, while 300 µL of the aqueous phase was removed by piercing the bottom of the vial with a syringe and cannula to avoid contact with the organic phase. Both fractions were transferred into fresh vials and counted in a gamma counter to determine the ratio between the activity in the organic and the aqueous phase. All measurements were performed in triplicate and the results are expressed as mean ± standard deviation of the logarithm of the partition coefficient between n-octanol and water (logP) or the logarithm of the distribution coefficient between n-octanol and PBS (logD7.4), respectively.

[5] = tested on: U87-mIDH cells; test: cellular uptake in U87-mIDH cells; format: cell-based, human; details: U87-mIDH cells; for cellular uptake: incubation 1 h
Description: (§1) Consistent with this assumption, uptake of [^18F]4 and, to a lesser extent, the ^18F-fluoroethoxylated analog [^18F]5 by both cell lines was considerably higher than that of (S)-[^18F]2.
(§2) Human glioblastoma cells with a c.395G>A knock-in mutation encoding mIDH1R132H (HTB-14IG™) and the corresponding wildtype cells (HTB-14™) were purchased from the American Type Culture Collection (ATCC). The cells were grown under standard culture conditions (5% CO2 and 95% air at 37 °C) in Eagle’s Minimum Essential Medium (MEM) supplemented with 10% fetal bovine serum (FBS) and antibiotics (penicillin–streptomycin mixed solution, Gibco, Thermo Fisher Scientific, Oberhausen, Germany).
(§3) For the cellular uptake studies, 1.5 × 10^5 cells were seeded into gelatin-coated 12-well transwell plates and incubated in 1 mL MEM (without FBS and antibiotics) containing 18.5 kBq (0.5 µCi) of the corresponding radiotracer. After incubation at 21 °C for 1 h, the supernatant was collected, the cells were lysed with 40 mM NaOH and the radioactivity of both fractions was measured with a gamma counter. The total protein concentration of the cell lysate was measured by a bicinchoninic acid (BCA) assay. The radiotracer uptake was calculated as the ratio of radioactivity in the cell fraction and the supernatant and normalized by protein content (% uptake/100 µg protein). Statistical analysis of the results was performed with Originlab Pro 2023b using two-tailed t-tests with a significance level of 0.05 to identify significant differences between groups.

[6] = tested on: U87-WT cells; test: cellular uptake in U87-WT cells; format: cell-based, human; details: incubation 1 h
Description: as §1, §2, §3

T1 sequence (O75874 whole entry R132H): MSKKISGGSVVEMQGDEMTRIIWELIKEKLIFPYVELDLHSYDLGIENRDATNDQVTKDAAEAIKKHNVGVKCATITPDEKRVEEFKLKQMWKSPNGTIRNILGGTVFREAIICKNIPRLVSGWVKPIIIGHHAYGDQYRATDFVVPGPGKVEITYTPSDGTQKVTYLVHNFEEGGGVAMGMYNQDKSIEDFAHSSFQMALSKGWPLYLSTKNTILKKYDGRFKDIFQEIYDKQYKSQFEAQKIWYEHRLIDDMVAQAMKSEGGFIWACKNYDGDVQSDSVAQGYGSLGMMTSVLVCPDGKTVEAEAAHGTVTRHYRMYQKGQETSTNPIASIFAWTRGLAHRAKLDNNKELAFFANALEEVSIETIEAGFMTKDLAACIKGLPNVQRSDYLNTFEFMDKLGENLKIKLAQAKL

Structure (SMILES)	Amax (fit parameter) [1]	Amin (fit parameter) [1]	Hill slope [1]	IC50 [1] [nM]	decomposition in DMSO [2]	logD [4]	cellular uptake [5] [% per 100 µg protein]	other results
C[C@H](Nc1ccc(C#N)n(C)c1=O)c1cc2cc(F)ccc2[nH]c1=O [(S)-2, (S)-5-[{1-(6-Fluoro-2-oxo-1,2-dihydroquinoline-3-yl)ethyl}amino]-1-methyl-6-oxo-1,6-dihydropyridine-2-carbonitrile]	95 (93−97) %	33 (30−35) %	5.6 (4.0−7.2)	102	no decomposition	–	–	–
C[C@@H](Nc1ccc(C#N)n(C)c1=O)c1cc2cc(F)ccc2[nH]c1=O [(R)-2, (R)-5-[{1-(6-Fluoro-2-oxo-1,2-dihydroquinoline-3-yl)ethyl}amino]-1-methyl-6-oxo-1,6-dihydropyridine-2-carbonitrile]	79 (72−87) %	28 (25−31) %	3.0 (1.3−4.8)	1360	–	–	–	fold higher IC50 value relative to (S)-enantiomer [1]: > 10 fold
COc1cc(NCc2cc3cc(Cl)ccc3[nH]c2=O)ccc1C#N [compound 3]	–	–	–	–	–	–	–	Selectivity (ratio of biochemical IC50 values for mIDH1R132H and the wildtype enzyme) [3]: > 700
C[C@@H](Nc1ccc(C#N)n(C)c1=O)c1cc2cc([18F])ccc2[nH]c1=O [(R)-[^18F]2]	–	–	–	–	–	2.51 ± 0.11	0.5 ± 0.1	logP [4]: negative
CC(Nc1ccc(C#N)n(C)c1=O)c1cc2cc(F)ccc2[nH]c1=O (centres unmarked) [mIDH-23]	–	–	–	–	–	–	–	IC50 ([3]; biochemical assays, read-out: IC50 (reported potency for inhibition of mIDH1R132H)): 23 nM; Selectivity (ratio of biochemical IC50 values for mIDH1R132H and the wildtype enzyme) [3]: > 400

The next lines start with results.

Amax (fit parameter) [1]	Amin (fit parameter) [1]	Hill slope [1]	IC50 [1] [nM]	decomposition in DMSO [2]	logD [4]	Structure (SMILES)	cellular uptake [5] [% per 100 µg protein]	other results
98 (96−100) %	1.8 (0.6−3.0) %	2.8 (2.5−3.0)	713	less than 10%	–	COc1cc(NCc2cc3cc(F)ccc3[nH]c2=O)ccc1C#N [compound 4, 4-{[(6-Fluoro-2-oxo-1,2-dihydroquinolin-3-yl)methyl]amino}-2-methoxybenzonitrile]	–	fold lower potency than (S)-2 in functional assays [1]: roughly 7 fold
–	–	–	–	–	2.72 ± 0.06	N#Cc1ccc(NCc2cc3cc(F)ccc3[nH]c2=O)cc1OCC[18F] [[^18F]5]	3.2 ± 0.6	logP ([4]; read-out: logP): 2.77 ± 0.03; cellular uptake [6]: 3.7 ± 0.6 % per 100 µg protein
–	–	–	–	–	2.51 ± 0.11	C[C@H](Nc1ccc(C#N)n(C)c1=O)c1cc2cc([18F])ccc2[nH]c1=O [(S)-[^18F]2]	0.9 ± 0.2	fold higher cellular uptake than (R)-[^18F]2 [5]: approx. 2 fold; cellular uptake [6]: 1.2 ± 0.7 % per 100 µg protein
41 (36−45) %	3 (2−3) %	2.1 (1.6−2.7)	8280	less than 10%	–	N#Cc1ccc(NCc2cc3cc(F)ccc3[nH]c2=O)cc1OCCF [compound 5, 4-(((6-Fluoro-2-oxo-1,2-dihydroquinolin-3-yl)methyl)amino)-2-(2-fluoroethoxy)benzonitrile]	–	–
